Here are results for two compounds from PMC11242382, “Rapid Screening of Chemical Components in Salvia miltiorrhiza with the Potential to Inhibit Skin Inflammation” (International Journal of Molecular Sciences, 2024).

Common to all, as to assay type: biochemical
Experiment [1] concerns the target T1, HAase (Bos taurus, UniProt Q2YDK3).
T1 sequence (Q2YDK3 36-553): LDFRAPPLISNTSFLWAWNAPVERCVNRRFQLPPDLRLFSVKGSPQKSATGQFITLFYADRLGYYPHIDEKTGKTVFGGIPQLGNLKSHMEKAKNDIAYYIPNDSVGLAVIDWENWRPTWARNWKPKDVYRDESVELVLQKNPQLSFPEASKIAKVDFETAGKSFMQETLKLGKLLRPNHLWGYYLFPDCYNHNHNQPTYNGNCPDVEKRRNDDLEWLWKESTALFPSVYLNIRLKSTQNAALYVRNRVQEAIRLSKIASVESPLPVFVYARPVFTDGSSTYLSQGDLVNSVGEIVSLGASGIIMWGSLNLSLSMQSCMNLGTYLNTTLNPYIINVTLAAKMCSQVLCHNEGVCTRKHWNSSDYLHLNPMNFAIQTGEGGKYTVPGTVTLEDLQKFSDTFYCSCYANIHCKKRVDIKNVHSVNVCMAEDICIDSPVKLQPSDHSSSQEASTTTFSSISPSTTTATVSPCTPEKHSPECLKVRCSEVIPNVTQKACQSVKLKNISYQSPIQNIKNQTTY
Description: HAase inhibition assay (Elson–Morgan modified method). The protocol: The inhibition assay of the ligands against HAase was performed, following the Elson–Morgan modified method, and the working concentration of the sample was determined to be 0.5 mg/mL [35, 36, 37]. The assays took place in 10 mL centrifuge tubes. Firstly, 0.5 mL of sample solution and 0.5 mL of HAase were added (500 U/mL) to the tube in a 37 °C water bath for 20 min. Then, 0.1 mL of CaCl2 (2.5 mol/L) solution was added to the tube in a 37 °C water bath for 20 min. Next, 0.5 mL of sodium hyaluronate solution (0.5 mg/mL) was added to the tube at 37 °C in a water bath for 40 min. Afterward, we added 0.5 mL of distilled water, 0.1 mL of NaOH solution, and 0.5 mL of acetylacetone (composed of 50 mL of Na2CO3 (1 M) and 3.5 mL of acetylacetone) to the tube. This mixture was kept in the 37 °C water bath for 15 min and then transferred to an ice bath for 10 min, followed by 10 min at room temperature. Afterward, 1 mL of P-DAB and 4.3 mL of ethanol were added to it. The absorbance was measured at 530 nm after allowing the solution to stand for 30 min. […]

Experiment [2] has as its target T1, HAase. Description: Combined effects of SAB and RA on HAase (median-effect equation, combination index). To be noted: for Fa (%): SAB-only group. The protocol:
The inhibition assay of the ligands against HAase was performed, following the Elson–Morgan modified method, and the working concentration of the sample was determined to be 0.5 mg/mL [35, 36, 37]. The assays took place in 10 mL centrifuge tubes. Firstly, 0.5 mL of sample solution and 0.5 mL of HAase were added (500 U/mL) to the tube in a 37 °C water bath for 20 min. Then, 0.1 mL of CaCl2 (2.5 mol/L) solution was added to the tube in a 37 °C water bath for 20 min. Next, 0.5 mL of sodium hyaluronate solution (0.5 mg/mL) was added to the tube at 37 °C in a water bath for 40 min. Afterward, we added 0.5 mL of distilled water, 0.1 mL of NaOH solution, and 0.5 mL of acetylacetone (composed of 50 mL of Na2CO3 (1 M) and 3.5 mL of acetylacetone) to the tube. This mixture was kept in the 37 °C water bath for 15 min and then transferred to an ice bath for 10 min, followed by 10 min at room temperature. Afterward, 1 mL of P-DAB and 4.3 mL of ethanol were added to it. The absorbance was measured at 530 nm after allowing the solution to stand for 30 min. The HAase inhibition rate (R) was calculated using the following formula:(1) R=A0−A/A0×100% where A0 is the absorbance of the control group (without the sample, enzyme solution, and sodium hyaluronate as the drug control), and A is the absorbance of the sample group (with the sample, no enzyme solution, and sodium hyaluronate as the blank control); ascorbic acid was the positive control.
The Fa value for each group is Fa (%) = R* (where R* denotes the mean value of inhibition in the administered group). Neutralization graphs (y = log Fa/Fu, x = logD, and y = ax + b) and the neutralization of the two components in monotherapy and combination were calculated based on the neutralization equation Fa/Fu = (D/Dm)^m. In this equation, Fa is the drug effect, Fu = 1 − Fa, D is the drug concentration, Dm is the neutralization concentration, that is, the concentration of the drug when it exerts 50% of its effect, and m is the slope of the equation of the neutralization curve. Dose was calculated using (logDm = −b/a, a = m) and the corresponding parameters of the equation (slope m and correlation coefficient r, etc.). Then, the CI value of the combined effect was calculated according to the following formula:(2) CI=D1/Dx1+D2/Dx2 where D1 and D2 are the concentrations of each of the two drugs causing the x effect when combined, and Dx1 and Dx2 are the concentrations of each of the two drugs causing the x effect when used alone. […] The quantitative effect-relationship curves of the two drugs individually and after combination were plotted using GraphPad Prism V5.0, with the drug concentration as the horizontal coordinate and the Fa value as the vertical coordinate. The data of the combined action group were simulated using Compusyn V1.0 and the neutral effect equation. The Fa-CI curves were plotted using GraphPad Prism V5.0, with the simulated Fa on the horizontal axis and its corresponding CI value on the vertical axis. This comprehensive analysis aimed to thoroughly evaluate the effects of the 2 drugs following their combined action, based on the provided data.

Experiment [3] has as its target T1, HAase. Briefly: Enzyme kinetics study (Lineweaver–Burk plots). To be noted: for type of HAase inhibition: Lineweaver–Burk plots; for Kis: from Y-intercept of double inverse curve vs inhibitor concentration. As to the method: We conducted enzyme kinetic studies to explore the inhibitory patterns of the ligands of HAase, employing a method that was previously documented. Based on the earlier HAase inhibition assay, 5 different concentrations of ligands (0, 1/2 × IC50, 1 × IC50, 3/2 × IC50, and 2 × IC50) were reacted with 5 different concentrations of sodium hyaluronate (500, 750, 1000, 1250, and 1500 µM). The reaction rate was monitored within the initial 30 min post-initiation. Grouping the samples by concentration, we derived the corresponding regression equations to construct the Lineweaver–Burk diagram, with the reciprocal of the average reaction rate (1/V) on the ordinate and the reciprocal of the substrate concentration (1/[S]) on the abscissa. From this diagram, we extracted the reciprocal of the transverse intercept (Km) and longitudinal intercept (Vmax) to compute the values of the constants Ki and Kis.

As for salvianolic acid B [SAB], the “IC50 against HAase” value in experiment [1] was determined as 204.15 ± 1.08 µg/mL. Also, the “Inhibition Rate (%) against HAase” value in experiment [1] (sample concentration 0.5 mg/mL, mean ± SD (n = 3)) is reported as 68.27 ± 0.71%. In addition, the “Fa (%)” value in experiment [2] (0.006 mg/mL) came out at 8.30%; in experiment [2] (0.03 mg/mL) it was 18.07%; in experiment [2] (0.06 mg/mL), 22.16%; in experiment [2] (0.15 mg/mL) it was 40.98%; in experiment [2] (0.3 mg/mL), 59.08%. Also, the “m (slope of the neutralization curve equation)” value in experiment [2] (median-effect equation) turned out to be 0.6928. Further, in experiment [2] (median-effect equation, concentration at 50% of effect), the “Dm (median effective concentration)” value was 0.2424 mg/mL. Moreover, in experiment [3], the “type of HAase inhibition” value is “mixed-type inhibitors”. This compound also came in with a Kis in experiment [3] of 0.96 µM.
For `O=C(/C=C/c1ccc(O)c(O)c1)O[C@H](Cc1ccc(O)c(O)c1)C(=O)O` [RA, rosmarinic acid], the “m (slope of the neutralization curve equation)” value in experiment [2] (median-effect equation) is reported as 0.6904. In experiment [3], the “type of HAase inhibition” value is given as “mixed-type inhibitors” and the Kis is listed as 4.60 µM.
